Molecules are shown by their SMILES.

One may read the inhibition as the relative decrease from the control value, in per cent. Low readings indicate a weak effect, high ones a strong effect. What is called IC50 is the concentration at which inhibition is half-maximal.

The target of assay [1] is T1, FLhPIF1 (full length human PIF1) (Homo sapiens, UniProt Q9H611).
T1 construct: Full length human PIF1 (FLhPIF1) was expressed and purified as a His-SUMO fusion; His-SUMO (cleaved yes); made in house; 'following similar protocols' to hPIF1HD (ArcticExpress BL21(DE3) E. coli)
T1 sequence (Q9H611 1-641): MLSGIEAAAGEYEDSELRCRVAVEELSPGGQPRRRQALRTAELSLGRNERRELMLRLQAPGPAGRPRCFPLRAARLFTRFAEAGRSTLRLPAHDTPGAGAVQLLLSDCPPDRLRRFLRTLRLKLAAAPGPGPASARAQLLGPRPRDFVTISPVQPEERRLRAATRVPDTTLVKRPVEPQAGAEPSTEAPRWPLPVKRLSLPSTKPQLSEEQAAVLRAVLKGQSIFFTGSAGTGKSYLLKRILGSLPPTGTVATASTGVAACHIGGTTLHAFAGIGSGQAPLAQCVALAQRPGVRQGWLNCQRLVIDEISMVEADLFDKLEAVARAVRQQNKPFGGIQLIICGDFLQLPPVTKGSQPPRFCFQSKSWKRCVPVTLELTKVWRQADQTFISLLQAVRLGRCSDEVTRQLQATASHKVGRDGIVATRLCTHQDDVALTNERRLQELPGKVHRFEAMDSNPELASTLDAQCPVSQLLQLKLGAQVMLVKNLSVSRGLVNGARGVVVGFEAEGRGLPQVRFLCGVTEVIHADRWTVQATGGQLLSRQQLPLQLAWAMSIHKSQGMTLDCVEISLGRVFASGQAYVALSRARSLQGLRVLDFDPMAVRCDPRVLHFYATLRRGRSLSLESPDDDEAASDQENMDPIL
Briefly: radiometric strand displacement helicase assay, no pre-incubation. In kind it is biochemical. As to conditions: for inhibition at 1000 µM: 1 mM single point, gel-based DNA unwinding assay, four repeats (S4 n=3); for IC50: 0.0078–2 mM compound, 10 nM FLhPIF1, 0.1 nM DNA substrate, n = 3, read-out: IC50 for inhibition of FLhPIF1 helicase activity; for fold increase in inhibition at 1 mM relative to compound 1: 1 mM single point helicase screen. The method, then:
Helicase activity was assayed using a radiometric strand displacement assay employing a partially single- and double-stranded substrate generated by annealing two oligonucleotides: 5′-(T)55-[…] and 5′-[…], as described previously ([19],[28]). […] SMIs (100 mM stocks in DMSO) were assayed at up to 2 mM without pre-incubation with FLhPIF1, unless otherwise stated. […] Dried gels were exposed to phosphorimaging plates (Fujifilm) for imaging and quantification (Fuji FLA3000, image gauge V3.3 software). IC50 values were analysed by non-linear regression (variable slope) using GraphPad Prism.

Assay [2] has as its target T2, human UPF1 (hUPF1) helicase (Homo sapiens, UniProt Q92900).
T2 construct: Full-length human UPF1 helicase was expressed and purified as described previously; made in house
T2 sequence (Q92900 1-1129): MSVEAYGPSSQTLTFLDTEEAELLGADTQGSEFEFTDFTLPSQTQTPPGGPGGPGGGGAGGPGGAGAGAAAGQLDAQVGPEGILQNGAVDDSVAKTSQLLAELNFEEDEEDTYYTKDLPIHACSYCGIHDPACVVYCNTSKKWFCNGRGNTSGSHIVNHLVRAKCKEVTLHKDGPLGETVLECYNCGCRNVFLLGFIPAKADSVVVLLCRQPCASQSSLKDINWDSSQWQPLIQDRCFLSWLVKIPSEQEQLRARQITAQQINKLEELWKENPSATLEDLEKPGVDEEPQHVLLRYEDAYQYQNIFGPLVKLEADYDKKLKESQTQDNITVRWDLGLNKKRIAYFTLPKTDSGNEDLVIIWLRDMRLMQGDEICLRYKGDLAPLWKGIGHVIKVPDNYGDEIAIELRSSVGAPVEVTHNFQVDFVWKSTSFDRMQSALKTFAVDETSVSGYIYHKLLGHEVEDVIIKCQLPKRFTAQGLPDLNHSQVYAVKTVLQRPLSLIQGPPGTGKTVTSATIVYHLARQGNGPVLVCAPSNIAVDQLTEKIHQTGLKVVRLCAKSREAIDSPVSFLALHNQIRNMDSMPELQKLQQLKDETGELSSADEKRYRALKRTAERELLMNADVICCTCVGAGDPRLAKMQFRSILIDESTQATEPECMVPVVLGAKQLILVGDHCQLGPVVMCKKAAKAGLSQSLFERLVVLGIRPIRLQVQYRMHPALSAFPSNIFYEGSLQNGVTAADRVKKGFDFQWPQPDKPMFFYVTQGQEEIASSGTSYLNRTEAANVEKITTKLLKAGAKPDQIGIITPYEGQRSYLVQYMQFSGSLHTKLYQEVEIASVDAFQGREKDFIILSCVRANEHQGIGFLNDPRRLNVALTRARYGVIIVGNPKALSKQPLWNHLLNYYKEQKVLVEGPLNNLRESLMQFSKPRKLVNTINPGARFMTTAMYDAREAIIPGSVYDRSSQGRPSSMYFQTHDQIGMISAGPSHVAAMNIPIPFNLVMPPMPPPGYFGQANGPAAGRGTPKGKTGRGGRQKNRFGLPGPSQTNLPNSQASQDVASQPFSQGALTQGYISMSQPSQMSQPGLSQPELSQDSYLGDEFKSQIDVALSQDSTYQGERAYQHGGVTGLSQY
The assay can be described thus: helicase assay after pre-incubation of SMI with hUPF1. As to conditions: for IC50: 2 h pre-incubation at 22°C with 100 nM hUPF1, then 1:10 dilution into helicase assay, read-out: IC50 for dsDNA unwinding by hUPF1 following pre-incubation. In kind it is biochemical. How it is done: Full-length human UPF1 helicase was expressed and purified as described previously ([36]).
In parallel, IC50 values for inhibition of human UPF1 (hUPF1) helicase activity by the SMIs were also determined under the same conditions. UPF1-like SF1B helicases are the most closely related family of helicases to PIF1, with significant structural and mechanistic similarity ([52]).
Figure 6. SMI IC50 for dsDNA unwinding determined following pre-incubation. SMIs (0.0078–2 mM SMI) were incubated for 2 h at 22°C (100 nM FLhPIF1 or hUPF1) before dilution (1:10) in the standard helicase assay (0.1 nM DNA substrate). For 1D and 6, structures, electrophoresis of FLhPIF1 reaction product and graphs for IC50 value determination are shown. The graphed data include the activity of SMIs towards hUPF1 and IC50 values obtained are given. See Supplementary Figure S14 for the complete data set. TEXT PRINTED IN THE PICTURE: 1D: IC50 (μM): PIF1: 978 ± 221; IC50 (μM): UPF1: N.D. | 6: IC50 (μM): PIF1: 79.4 ± 16; IC50 (μM): UPF1: 1750 ± 426
Supplementary Figure 14. IC50 DNA unwinding determined following 2 hours pre-incubation. […] The assay procedure and reaction conditions for each helicase were identical (see methods, main manuscript). The figure complements main manuscript Figure 6. […] The reason for this is unclear.

For the compound `CC(=O)c1ccc(-c2csc(N)n2)cc1` [Compound 2], in assay [1], at 1000 µM the inhibition was 79.1 ± 5.2%. Also, the figures for the 50% inhibitory concentration (IC50) in assay [1] (no pre-incubation) and in assay [2] were 165 ± 75 µM and 445 ± 132 µM, respectively.

`N#Cc1ccc(-c2csc(N)n2)cc1` [Compound 5] displayed an inhibition at 1000 µM in assay [1] of 84 ± 4.1%. For the same compound, the figures for the IC50 in assay [1] (no pre-incubation) and in assay [2] were 105 ± 6 µM and 289 ± 127 µM, respectively.

`Nc1nc(-c2ccc(C(=O)c3ccccc3)cc2)cs1` [Compound 6]: in assay [1], the inhibition at 1000 µM was determined as 82.3 ± 6.6%. Moreover, the IC50 in assay [1] (no pre-incubation) was 36 ± 7 µM; in assay [2], 1750 ± 426 µM. For the same compound, the “fold improvement of helicase IC50 compared to progenitor 1F” value in assay [1] (no pre-incubation) came out at 30 fold. Besides, the “fold difference in sensitivity, hUPF1 vs FLhPIF1 IC50” value in assay [2] (2 h pre-incubation) is recorded as roughly 22 fold.

Take `CC(=O)Nc1ccc(-c2csc(N)n2)cc1-c1ccc(C)cc1` [Compound 10]: the “inhibition of FLhPIF1 helicase activity in 1 mM single-point screen” value in assay [1] (1 mM) is “strongly inhibited the protein”. In addition, in assay [1], the “fold increase in inhibition at 1 mM relative to compound 1” value is “up to 6.5 fold” and the inhibition at 1000 µM is 80.9 ± 5.5%. Moreover, the half-inhibitory concentration (IC50) in assay [1] (no pre-incubation) came out at 174 ± 7 µM.

With `CC(=O)Nc1ccc(-c2csc(N)n2)cc1C1=CCNCC1` [Compound 11], in assay [1], the “fold increase in inhibition at 1 mM relative to compound 1” value was “up to 6.5 fold”. Further, testing at 1000 µM in assay [1] gave an inhibition of 84.8 ± 3.4%. The IC50 turned out to be 188 ± 8 µM in assay [1] (no pre-incubation) and 576 ± 146 µM in assay [2].
